Source: US7618796B2, “Peptide-forming enzyme gene, peptide-forming enzyme, and peptide producing method” (Ajinomoto Co., Inc., priority 2001, dated 2009)
Where two headings read alike, the source gives them in different places. Residues, ends and D or L forms follow the SMILES beside them.

Legend:
[1] = system: Pseudomonas putida strain FERM BP-8101; settings: substrate solution with 20 mM EDTA, 200 mM L-alanine ethyl ester hydrochloride, 400 mM L-glutamine, pH 9.0, 1 hour, 30° C.; 4.9 mM with no EDTA
Excerpt: However, the present invention is not limited to these examples.

[2] = system: proline iminopeptidase of Pseudomonas putida strain FERM BP-8123; experiment: Effect of inhibitors on L-alanyl-L-glutamine synthesis; assay type: biochemical; settings: 1 mM inhibitor, 30 minutes, 30° C.
[3] = system: proline iminopeptidase of Pseudomonas putida strain ATCC 12633; experiment: as above; assay type: biochemical; settings: 1 mM inhibitor, 30 minutes, 30° C.
Experimental: The effects of inhibitors on acquired proline iminopeptidase were investigated. The enzyme reaction was carried out for 30 minutes at 30° C. with a reaction solution consisting of 0.1 M borate buffer (pH 9.0), 10 mM EDTA, 100 mM L-alanine methyl ester hydrochloride, 150 mM L-glutamine and 1 mM inhibitor, followed by measurement of L-alanyl-L-glutamine synthesis. […] The activity was not affected by any of the inhibitors investigated for Corynebacterium glutamicum strain ATCC 13286.

[4] = biological target: proline iminopeptidase of Bacillus coagulans strain EK01 (Heyndrickxia coagulans, UniProt P46541); experiment: as above; assay type: biochemical; settings: 1 mM inhibitor, 30 minutes, 30° C.
Chain of proline iminopeptidase of Bacillus coagulans strain EK01 (P46541 whole entry): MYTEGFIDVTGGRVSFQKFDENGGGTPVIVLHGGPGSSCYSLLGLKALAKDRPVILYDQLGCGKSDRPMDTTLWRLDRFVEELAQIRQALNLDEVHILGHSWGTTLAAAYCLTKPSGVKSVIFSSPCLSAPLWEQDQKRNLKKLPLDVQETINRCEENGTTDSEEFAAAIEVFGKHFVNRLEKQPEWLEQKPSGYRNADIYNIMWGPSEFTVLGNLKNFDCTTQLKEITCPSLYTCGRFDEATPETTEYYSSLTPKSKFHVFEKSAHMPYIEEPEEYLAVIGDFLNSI

[5] = system: Pseudomonas putida strain FERM BP-8101; experiment: Dipeptide production from test L-alanine esters / L-amino acids by cell suspension; assay type: cell-based; settings: 20 mM EDTA, pH 9.0, 1 hour, 30° C.; for L-alanyl-L-glutamine produced: test L-alanine ester hydrochloride 200 mM with L-glutamine 400 mM; for L-alanyl dipeptide produced: L-alanine methyl ester hydrochloride 200 mM with test L-amino acid 400 mM
Experimental: Note that in the examples, quantitative determination of L-alanine, L-alanyl-L-glutamine or L-alanyl-L-asparagine was carried out by a method using high performance liquid chromatography (column: Inertsil ODS-2 (GL Science), eluate: aqueous phosphate solution (pH 2.2, 5.0 mM sodium 1-octane sulfonate/methanol=100/15), flow rate: 1.0 mL/min, detection: 210 nm).

[6] = system: His-Tag purified peptide-forming enzyme of Corynebacterium glutamicum strain ATCC 13286; experiment: Study of substrate specificity using His-Tag purified enzyme; assay type: biochemical; settings: 25° C.; for quantity of L-alanyl dipeptide produced from L-alanine methyl ester and test amino acid: 100 mM L-alanine methyl ester hydrochloride, 150 mM test amino acid; for quantity of L-alanyl dipeptide produced from L-alanine methyl ester and test amino acid / quantity of dipeptide produced from test amino acid methyl ester and L-glutamine: enzyme 0.05 U/ml, pH 9.0, 3 hours; for quantity of dipeptide produced from test amino acid methyl ester and L-glutamine / production of peptide of the corresponding amino acid and L-glutamine (not quantified): 100 mM test amino acid methyl ester, 150 mM L-glutamine; for production of peptide of the corresponding amino acid and L-glutamine (not quantified): 3 hours, no standard preparation
Excerpt: The synthesis of peptides other than the L-alanyl-L-glutamine by the acquired peptide-forming enzyme was studied using His-Tag purified enzyme. […]

[7] = system: peptide-forming enzyme purified from Corynebacterium glutamicum strain ATCC 13286; experiment: Dipeptide production by enzyme purified from Corynebacterium glutamicum; assay type: biochemical; settings: 100 mM L-alanine methyl ester hydrochloride with 200 mM test L-amino acid, 2 units enzyme, 10 mM EDTA, pH 9.0, 4 hours, 30° C.
Experimental: This purified enzyme was then added to borate buffer (pH 9.0) containing EDTA, L-alanine methyl ester hydrochloride and L-glutamine (or L-asparagine), mixed to the total volume of 1 mL (for the final concentrations, the amount of enzyme added was 2 units as alanine amide decomposition activity, EDTA was at 10 mM, L-alanine methyl ester hydrochloride was at 100 mM and L-glutamine (or L-asparagine) was at 200 mM borate buffer at 100 mM), and allowed to react for 4 hours at 30° C.

[8] = Enzyme titer: L-alanine amide decomposition activity; assay type: biochemical; settings: Tris-HCl pH 9.0, 60 minutes, 30° C.
Experimental: The specific activity of the purified enzyme was 9.841 U/mg, and the specific activity of the purified peptide-forming enzyme was increased about 246-fold as a result of going through these purification steps. In addition, as a result of applying the molecular weight of the purified enzyme standard to SDS polyacrylamide electrophoresis, a uniform band was detected at the position calculated to represent a molecular weight of 42,000 to 46,000. Measurement of enzyme titer was carried out as described below. 200 μM of Tris-HCl buffer (pH 9.0), 50 μM of L-alanine amide and a suitable amount of enzyme liquid were added and mixed to a final volume 1 mL, and after allowing to react for 60 minutes at 30° C., 4 mL of aqueous phosphoric acid (pH 2.1) was added to stop the reaction. The alanine produced was quantified by high-performance liquid chromatography, and the amount of enzyme that produces 1 μM of L-alanine in 1 minute was defined as 1 unit.

With `O=C(O)CN(CCN(CC(=O)O)CC(=O)O)CC(=O)O` [EDTA, ethylenediaminetetraacetic acid] the L-alanyl-L-glutamine produced [1] was 10.1 mM.

With `NC(=O)CI` [IAA, iodoacetoamide] the “effect on enzyme activity” value [2] was “decreased to certain extents”, the “effect on enzyme activity” value [3] was “decreased to certain extents” and the “effect on enzyme activity” value [4] was “decreased to certain extents”.

With `CCOC(=O)[C@H](C)N.Cl` [L-alanine ethyl ester hydrochloride] the L-alanyl-L-glutamine produced [5] was 11.4 mM.

Work on `COC(=O)[C@H](C)N.Cl` [L-alanine methyl ester hydrochloride] yielded a L-alanyl-L-glutamine produced [5] of 14.9 mM.

Work on `C[C@H](N)C(=O)OC(C)(C)C.Cl` [L-alanine-tert-butyl ester hydrochloride] yielded a L-alanyl-L-glutamine produced [5] of 0.5 mM.

In the case of `C[C@H](N)C(=O)O` [L-alanine], the “quantity of L-alanyl dipeptide produced from L-alanine methyl ester and test amino acid” value (“quantity of L-alanyl dipeptide produced” below) [6] is reported as 10.63 mM.

With `COC(=O)[C@@H](N)CCCNC(=N)N` [L-arginine methyl ester] the “quantity of dipeptide produced from test amino acid methyl ester and L-glutamine” value (shortened to “quantity of dipeptide produced”) [6] was 6.52 mM.

In the case of `N=C(N)NCCC[C@H](N)C(=O)O` [L-arginine], the “quantity of L-alanyl dipeptide produced” value [6] is reported as 24.87 mM.

For `COC(=O)[C@@H](N)CC(N)=O` [L-asparagine methyl ester], the “production of peptide of the corresponding amino acid and L-glutamine (not quantified)” value (shortened to “production of peptide … (not quantified)”) [6] was “confirmed to be produced”.

With `NC(=O)C[C@H](N)C(=O)O` [L-asparagine] the L-alanyl dipeptide produced [5] was 4.8 mM, the “amount of L-alanyl dipeptide produced” value [7] was 49.8 mM and the “quantity of L-alanyl dipeptide produced” value [6] was 22.34 mM.

For `COC(=O)C[C@H](N)C(=O)OC` [L-aspartic acid-α,β-dimethyl ester], the “production of peptide … (not quantified)” value [6] was “confirmed to be produced”.

With `COC(=O)[C@@H](N)CC(=O)O` [L-aspartic acid-α-methyl ester] the “quantity of dipeptide produced” value [6] was 8.22 mM.

For `COC(=O)C[C@H](N)C(=O)O` [L-aspartic acid-β-methyl ester], the “production of peptide … (not quantified)” value [6] was “confirmed to be produced”.

In the case of `N[C@@H](CCC(=O)O)C(=O)O` [L-glutamate], the “quantity of L-alanyl dipeptide produced” value [6] is reported as 1.11 mM.

With `COC(=O)CC[C@H](N)C(=O)O` [L-glutamic acid-γ-methyl ester] the “production of peptide … (not quantified)” value [6] was “confirmed to be produced”.

For `COC(=O)[C@@H](N)CCC(N)=O` [L-glutamine methyl ester], the “quantity of dipeptide produced” value [6] was 0.23 mM.

In the case of `NC(=O)CC[C@H](N)C(=O)O` [L-glutamine], the L-alanyl dipeptide produced [5] is reported as 12.7 mM and the “amount of L-alanyl dipeptide produced” value [7] is reported as 50.2 mM.

With `N[C@@H](Cc1c[nH]cn1)C(=O)O` [L-histidine] the “quantity of L-alanyl dipeptide produced” value [6] was 23.16 mM.

With `CC[C@H](C)[C@H](N)C(=O)N[C@@H](CCC(N)=O)C(=O)O` [L-isoleucyl-L-glutamine] (H-Ile-Gln-OH) the “quantity of dipeptide produced” value [6] was 0.59 mM.

In the case of `COC(=O)[C@@H](N)CC(C)C` [L-leucine methyl ester], the “production of peptide … (not quantified)” value [6] is reported as “confirmed to be produced”.

With `CC(C)C[C@H](N)C(=O)O` [L-leucine] the “quantity of L-alanyl dipeptide produced” value [6] was 13.73 mM.

With `COC(=O)[C@@H](N)CCCCN` [L-lysine methyl ester] the “production of peptide … (not quantified)” value [6] was “confirmed to be produced”.

With `NCCCC[C@H](N)C(=O)O` [L-lysine] the “quantity of L-alanyl dipeptide produced” value [6] was 7.91 mM.

In the case of `COC(=O)[C@@H](N)CCSC` [L-methionine methyl ester], the “quantity of dipeptide produced” value [6] is reported as 4.31 mM.

In the case of `CSCC[C@H](N)C(=O)O` [L-methionine], the “quantity of L-alanyl dipeptide produced” value [6] is reported as 48.80 mM.

In the case of `N[C@@H](Cc1ccccc1)C(=O)O` [L-phenylalanine], the “quantity of L-alanyl dipeptide produced” value [6] is reported as 16.13 mM.

In the case of `O=C(O)[C@@H]1CCCN1` [L-proline], the “quantity of L-alanyl dipeptide produced” value [6] is reported as 1.02 mM.

For `COC(=O)[C@@H](N)CO` [L-serine methyl ester], the “quantity of dipeptide produced” value [6] was 40.44 mM.

With `N[C@@H](CO)C(=O)O` [L-serine] the “quantity of L-alanyl dipeptide produced” value [6] was 26.14 mM.

With `COC(=O)[C@@H](N)[C@@H](C)O` [L-threonine methyl ester] the “quantity of dipeptide produced” value [6] was 3.85 mM.

For `C[C@@H](O)[C@H](N)C(=O)O` [L-threonine], the “quantity of L-alanyl dipeptide produced” value [6] was 24.23 mM.

In the case of `N[C@@H](Cc1c[nH]c2ccccc12)C(=O)O` [L-tryptophan], the “quantity of L-alanyl dipeptide produced” value [6] is reported as 15.31 mM.

In the case of `COC(=O)[C@@H](N)Cc1ccc(O)cc1` [L-tyrosine methyl ester], the “quantity of dipeptide produced” value [6] is reported as 1.24 mM.

In the case of `N[C@@H](Cc1ccc(O)cc1)C(=O)O` [L-tyrosine], the “quantity of L-alanyl dipeptide produced” value [6] is reported as 0.96 mM.

In the case of `COC(=O)[C@@H](N)C(C)C` [L-valine methyl ester], the “quantity of dipeptide produced” value [6] is reported as 5.94 mM.

For `CCN1C(=O)C=CC1=O` [NEM, N-ethylmaleimide], the “effect on enzyme activity” value [2] was “nearly completely inhibited”, the “effect on enzyme activity” value [3] was “nearly completely inhibited” and the “effect on enzyme activity” value [4] was “nearly completely inhibited”.

In the case of `O=S(=O)(F)Cc1ccccc1` [PMSF, phenyl methyl sulfonyl fluoride], the “effect on enzyme activity” value [2] is reported as “did not have an effect”, the “effect on enzyme activity” value [3] is reported as “did not have an effect” and the “effect on enzyme activity” value [4] is reported as “did not have an effect”.

With `COC(=O)CN` [glycine methyl ester] the “quantity of dipeptide produced” value [6] was 52.19 mM.

For `NCC(=O)O` [glycine], the “quantity of L-alanyl dipeptide produced” value [6] was 5.66 mM.

For “peptide-forming enzyme purified from Corynebacterium glutamicum strain ATCC 13286: native enzyme purified to uniformity; amino acid sequence SEQ ID NO: 5”, the “specific activity (L-alanine amide decomposition)” value [8] was 9.841 U/mg.
